From patent US5475136A, “Inhibitors of HIV protease useful for the treatment of AIDS” (Eli Lilly and Company, priority 1992, dated 1995)

Molecular target: T1, HIV-1 protease (Human immunodeficiency virus type 1 group M subtype B, UniProt P04585)
T1 construct: host or cells: E. coli K12 L507/pHP10D
Assay: biochemical
Conditions: read-out: Fluorescence Assay IC50 (converted)
Method: Lyophils of E. coli K12 L507/pHP10D were obtained from the Northern Regional Research Laboratory, Peoria, Ill. 61604, under the accession number NRRL B-18560 (deposited Nov. 14, 1989).
A culture of E. coli K12 L507/pHP10D was grown to mid-log phase at 32° C. in LB media containing 12.5 μg/mL tetracycline. The cultivation temperature was quickly elevated to 40° C. to induce gene expression, and the cells were allowed to grow for 2.5 hours at this temperature before the culture was quickly chilled on ice. The cells were centrifuged and the cell pellet was resuspended in 20 mL 50 mmol MES buffer (pH 6.0) containing 1 mmol EDTA, 1 mmol DTT, 1 mmol PMSF and 10% glycerol ("Buffer A"). Cells were lysed by sonication using a Fischer Model 300 Dismembrator and a microtip probe. […] Res. Commun., 167, 554-560 (1990); the production of the pl peptide (SQNY) was measured.
The active fractions were combined, made 1.2M in ammonium sulfate, and applied to a 2.0×18 cm hexyl agarose column that had been equilibrated in Buffer A containing 1.2M ammonium sulfate. The sample was loaded at a flow rate of 1 mL/min at 4° C., washed with the equilibration buffer for 240 min (1 mL/min) and then eluted using a reverse linear gradient of 1.2-0M ammonium sulfate in Buffer A for 120 min at the same flow rate. The column was then washed isocratically in Buffer A for 120 min. […]

| Compound | IC50 [µM] |
| --- | --- |
| CC(=O)N[C@@H](CC(N)=O)C(=O)N[C@@H](CSc1ccc2ccccc2c1)[C@H](O)Cc1ccccc1C(=O)NC(C)(C)C (relative stereo) [Example 1, [2'R-(2'R*,3'R*, 6'S*)]-N(t-butyl)-2-[2'-hydroxy-3'-naphth-2-ylthiomethyl-4',7'-diaza-5',8'-dioxo-6'-(2"-amino-2"-oxoethyl)]nonyl benzamide] | 0.00124 |
| CC(=O)N[C@@H](CC(N)=O)C(=O)N[C@@H](CSc1ccccc1)[C@H](O)Cc1ccccc1C(=O)NC(C)(C)C (relative stereo) [Example 2, [2'R-(2'R*,3'R*,6'S*)]-N(t-Butyl)-2-[2'-hydroxy-3'-phenylthiomethyl-4',7'-diaza-5',8'-dioxo-6'-(2"-amino-2"-oxoethyl)]nonyl benzamide] | 0.0212 |
